The test system of series [1] is HUVEC. Nature of the series: HUVEC proliferation induced by the compound alone (MTT). In kind it is cell-based, human. The procedure: (§1) Human umbilical vein endothelial cells (HUVEC) were isolated by 0.1% collagenase digestion (Worthington Biochemical, Bedford, Mass.) and propagated on gelatin-coated (0.1%) tissue culture plates in medium 199 (Gibco BRL, Grand Island, N.Y.) supplemented with 20% heat-inactivated fetal bovine serum (BioWhittaker, Walkersville, Md.), 50 μg/ml of endothelial cell mitogen (Biomedical Technologies, Stoughton, Mass.), 8 U/ml heparin (APP, Los Angeles, Calif.), 50 U/ml penicillin and 15 μg/ml streptomycin. Only passages 2 and 3 were used in reported experiments.
(§2) HUVEC (5×10^3) were plated in 96-well plates coated with 0.1% gelatin for 1 h at room temperature. After 24 h, the medium was removed and replaced with fresh medium 199 supplemented with 5% fetal bovine serum and different concentrations of recombinant human VEGF165 (R&D Systems, Minneapolis, Minn.), LTD4 or LTB4. Endothelial cells were enumerated after 72 h using the MTT® assay (Sigma, St. Louis, Mo.) (15). ATL-1 was prepared as in Clish et al. (13). Percent inhibition was evaluated in a similar manner and included a 15 minute incubation (37° C.) with 15-epi-lipoxin A4, 15-epi-16-(para-fluoro)-phenoxy-lipoxin A4 methyl ester (ATL-1), LXA4, 15-epi-LXA4 or 15-R/S-methyl, LXA4 prior to the addition of agonists. All incubations were performed in triplicate. Before each experiment the integrity and concentration of ATL-1, LXA4, 15-epi-LXA4 or 15-R/S-methyl, LXA4 was assessed by physical methods including LC/MS/MS and UV (13).

Series [2] deals with murine air pouch. Description: Inflammatory angiogenesis, VEGF-treated murine air pouch. In kind it is in vivo, mice (BALB/c). The procedure: Angiogenesis was assessed with murine air pouches that were raised via subcutaneous injection of sterile air (3 ml) beneath the dorsal skin of anesthetized mice (BALB/c, male 6-8 wk). After 24 hrs, ATL-1 (10 μg/pouch) or vehicle was delivered locally, immediately before the injection of VEGF (1 μg/pouch). The vascular content was assessed by the formation of vascular casts (as in 16). Briefly, mice were anesthetized (at 144 h) and peripheral vasodilation was raised by placing the animals in a heated jacket (40° C., 10 min). Vascular casts were formed by the i.v. injection of 1 ml 5% carmine red (Sigma) in 5% gelatin solution warmed to 40° C. Air pouch linings were dissected and weighed. The tissue was then dissolved in 2 ml of 3 N NaOH solution for 0.5 h, 21° C. and completely digested in hot water (56° C.) for 10 min. Digested samples were centrifuged (2500 rpm, 15 min) and filtered through a 0.45 μm filter. The dye content was quantified employing a 96-well plate spectrophotometer at 530 nm using a calibration curve. The results were expressed as vascular index (VI) as micrograms carmine dye/milligram weight of tissue, for n=4 animals/group. For visualization of the vasculature, the dorsal surface of the pouches was excised and fixed in formalin for 48 h. The tissues were dehydrated with 100% ethanol (5 days, 4° C.) and cleared by immersion in cedar wood oil for 2 weeks. In another set of experiments, mice were anesthetized and injected i.v. with 200 μl of 0.05 g/ml fluorescein isothiocyanate-dextran (Sigma) in PBS at 144 h immediately before sacrifice. Dissected linings were fixed, mounted on glass slides and examined for fluorescence (Nikon Eclipse model E600). In both protocols, the observers were not blinded to the treatments.
Air pouch membranous tissues were fixed in 10% buffered formalin overnight and processed for paraffin embedding. Five-micrometer paraffin sections of membrane tissue cut on face were used for immunohistochemistry for CD31 expression. Briefly, slides were deparaffinized and pretreated in 0.25% trypsin (Sigma Chemical) for 20 min at 37° C., followed by washing in distilled water. All further steps were performed at room temperature in a hydrated chamber. Slides were pretreated with Peroxidase Block (DAKO, Carpinteria, Calif.) for 5 min to quench endogenous peroxidase activity, followed by a 1:5 dilution of goat serum in 50 Mm Tris-Cl, pH 7.4, for 20 min to block nonspecific binding sites. Primary rat anti-murine CD31 antibody (BD PharMingen, San Diego, Calif.) was applied at a 1:100 dilution in 50 mMTris-Cl, pH 7.4, with 3% goat serum for 1 h. After washing in 50 mM Tris-Cl, pH 7.4, secondary rabbit anti-rat antibody (DAKO) was applied at a 1:200 dilution in 50 mM Tris-Cl, pH 7.4, with 3% goat serum for 30 min. Slides were washed again in 50 mM Tris-Cl, pH 7.4, and goat anti-rabbit horseradish peroxidase-conjugated antibody (Envision detection kit: DAKO) was applied for 30 min. After further washing, immunoperoxidase staining was developed using a DAB chromogen kit (DAKO) per the manufacturer and counterstained with hematoxylin.

For series [3], the system named is HUVEC. Description: Inhibition of VEGF-stimulated HUVEC proliferation (MTT). In kind it is cell-based, human. The note with it: for % inhibition of VEGF-stimulated proliferation: equimolar 10 nM, representative experiment. As for the experimental part: as §1, §2
Series [4] deals with HUVEC. Nature of the series: Inhibition of LTD4-stimulated HUVEC proliferation (MTT). To be noted: LTD4 10 nM; ATL-1 0.1-100 nM; read-out: IC50, antagonism of mitogenic action of LTD4. In kind it is cell-based, human. As for the experimental part:
as §1
as §2, with “Endothelial cells were enumerated after 72 h using the MTT® assay (Sigma, St. Louis, Mo.) (15). ATL-1 was prepared as in Clish et al. (13).” left out, “All incubations were performed in triplicate.” left out

Series [5] has as its system HUVEC. Description: HUVEC viability, trypan blue exclusion assay. In kind it is cell-based, human. The note with it: after exposure to ATL-1.
Series [6] can be described thus: Mean arterial pressure after i.v. dosing. The class given is in vivo. To be noted: 10 μg/mouse i.v.
Series [7] concerns HUVEC. Description: Endothelial cell migration, 48-well chemotaxis chamber. In kind it is cell-based, human. The note with it: for induction of endothelial cell migration, compound alone: 100 nM, no VEGF. The procedure: VEGF, ATL-1 or vehicle were added to the lower wells of a 48-well chemotaxis chamber (NeuroProbe, Cabin John, Md.). The wells were overlaid with a 10 μm pore size polycarbonate filter coated with 0.1% gelatin. HUVEC (1×10^6) were placed in the upper wells and the chamber was incubated (37° C., 5% CO2 for 12 h). Following incubations, filters were removed, scraped of cells from the upper surface, fixed and stained with Diff-Quik (Dade Behring, Newark, Del.). Cells that migrated across the filter toward the lower surface were enumerated by light microscopy; four fields were counted at high magnification (100×). Incubations were performed in triplicate. To assess inhibition, endothelial cells were suspended in media with vehicle or ATL-1 for 15 min before placement in the chamber.

For series [8], the system named is HUVEC. Description: Quantitative determination of DNA fragmentation (apoptosis). The class given is cell-based, human. To be noted: 100 nM alone or with VEGF 3 ng/ml; n=2, d=3. The procedure:
DNA fragmentation in individual apoptotic cells was quantitated using a photometric enzyme immunoassay (Apotosis detection kit: R&D Systems). HUVECs grown in 96-well microtiter plates (5×10^3 cells/well) were incubated for 3 days, fixed with 3.7% formaldehyde, and permeabilized with proteinase K before the labeling. Biotinylated nucleotides are incorporated onto the DNA fragments and detected by using steptavidin-horseradish peroxidase conjugate followed by the substrate TACS-Sapphire.

In the case of `CCCCC/C=C\C[C@@H](O)/C=C/C=C/C=C\[C@@H](O)CCCC(=O)O` [LTB4, reference compound], the “stimulated proliferation of HUVEC” value in series [1] (10 nM) is given as “did not give a significant response”. The “neovascularization, compound alone” value in series [2] (10 μg/pouch alone, n=2) is given as “stimulated neovascularization”.
For the compound `CCCCC/C=C\C\C=C/C=C/C=C/[C@@H](SC[C@H](N)C(=O)NCC(=O)O)[C@@H](O)CCCC(=O)O` [LTD4, reference compound], the “effect of LTD4 on VEGF-stimulated proliferation” value in series [3] is on record as “did not enhance or inhibit”. The “stimulated proliferation of HUVEC” value in series [1] (10 nM) was 42±1.2%.
For the compound `CCCCC[C@H](O)[C@@H](O)/C=C/C=C/C=C\C=C\[C@@H](O)CCCC(=O)O` [14-epi-LXB4], the “Percent of Proliferation” value in series [1] (0.1 nM) came out at 15.5 ± 1.0%; in series [1] (1.0 nM), 18.3 ± 1.6%; in series [1] (10 nM) it was 27.0 ± 5.0%; in series [1] (100 nM) it was 27.7 ± 1.3%.
Consider `O=C(O)CCC[C@H](O)[C@H](O)/C=C/C=C/C=C\C=C\[C@@H](O)COc1ccc(F)cc1` [ATL-1, 15-epi-16-(para-fluoro)-phenoxy-lipoxin A4], for which the IC50 in series [4] was about 3 nM; in series [3] (VEGF 3 ng/ml, 3 days, MTT, read-out: IC50, inhibition of VEGF-stimulated proliferation of HUVECs) it was about 3 nM. Besides, the “% of VEGF-stimulated proliferation” value in series [3] (ATL-1 plus genistein 50 μM, 5 min, 37° C., n=3) is given as 78.0±6.21%; in series [3] (ATL-1 without genistein), 38.0±2.5%. Also, in series [3] (VEGF-stimulated proliferation), the “concentration of maximal plateau of inhibition” value is reported as 10 nM. For the same compound, in series [3], the “% inhibition of VEGF-stimulated proliferation” value (from here on “% inhibition”) was 63.3±3.3%. For the same compound, the “action on HUVEC proliferation, analog alone” value in series [1] (100 nM, no VEGF) was “no apparent actions”. Moreover, the “reduction in the vascular index” value in series [2] (10 μg/pouch local, before VEGF 1 μg/pouch, day 6) is given as about 48%. Moreover, the “VEGF-elicited vasculature, fluorescein isothiocyanate-dextran microscopy” value in series [2] (10 μg/pouch, day 6) is given as “striking reduction of VEGF-elicited vasculature”. Moreover, the “vessels by CD31 immunohistochemical staining” value in series [2] (VEGF-treated mice) was “marked diminution of vessels”. Besides, the “vascular density, carmine vascular casts” value in series [2] (VEGF-treated, day 6 air pouch linings) is recorded as “clearly reduced vascular density”. In series [5], this compound returned an HUVEC remaining viable of about 98%. Besides, the “changes in mean arterial pressure” value in series [6] is “does not evoke apparent changes”. The “maximum level of inhibition of VEGF-stimulated HUVEC migration” value in series [7] (10 nM, VEGF 3 ng/ml) is about 45%. Besides, the “induction of endothelial cell migration, compound alone” value (shortened to “induction”) in series [7] is “did not induce endothelial cell migration”. In series [7] (VEGF 3 ng/ml), the “inhibition of VEGF-stimulated HUVEC migration” value was “concentration-dependent inhibition”. The DNA fragmentation pattern result in series [8] is reported as “Neither the ATL-1 (100 nM) alone nor in combination with VEGF (3 ng/ml) affected DNA fragmentation pattern”.
Take `CCCCCC(C)(O)/C=C/C=C\C=C\C=C\[C@@H](O)[C@@H](O)CCCC(=O)OC` (relative stereo) [15-R/S-methyl, LXA4, 5S,6R,15R/S-trihydroxy-15-methyl-7,9,13-trans-11-cis-eicosatetraenoic acid, methyl ester]: in series [7], the “induction” value is recorded as “did not induce endothelial cell migration”. Besides, the “inhibition of VEGF-stimulated HUVEC migration” value in series [7] (VEGF 3 ng/ml) was “concentration-dependent inhibition”.
On to `CCCCC[C@H](O)[C@H](O)/C=C/C=C/C=C\C=C\[C@@H](O)CCCC(=O)O` [15-epi-LXB4], for which the “Percent of Proliferation” value in series [1] (0.1 nM) turned out to be 20.1 ± 1.2%; in series [1] (1.0 nM), 26.1 ± 2.8%; in series [1] (10 nM), 34.0 ± 2.5%; in series [1] (100 nM), 35.2 ± 5.2%.
`CCCCC[C@@H](O)/C=C/C=C\C=C\C=C\[C@@H](O)[C@@H](O)CCCC(=O)O` (relative stereo) [15-epi-LXA4, 5S,6R,15R-trihydroxy-7,9,13-trans-11-cis-eicosatetraenoic acid]: the “% inhibition” value in series [3] is recorded as 59.8±1.8%. In series [7], the “induction” value is on record as “did not induce endothelial cell migration”. For the same compound, the “inhibition of VEGF-stimulated HUVEC migration” value in series [7] (VEGF 3 ng/ml) is recorded as “concentration-dependent inhibition”.
Take VEGF [reference compound]: the “VEGF response, proliferation of HUVEC” value in series [1] (VEGF comparison in LTD4 experiment) worked out at 52.7±1.6%. Further, the VEGF-induced proliferation entry in series [1] (footnote of table, VEGF comparison) is “VEGF-induced proliferation: 50.4 ± 4.0%”.
As to `CCCCC[C@H](O)/C=C/C=C\C=C\C=C\[C@@H](O)[C@@H](O)CCCC(=O)O` (relative stereo) [LXA4, 5S,6R,15S-trihydroxy-7,9,13-trans-11-cis-eicosatetraenoic acid], the “% inhibition” value in series [3] is given as 38.1±2.0%. Also, the “induction” value in series [7] is reported as “did not induce endothelial cell migration”. For the same compound, the “inhibition of VEGF-stimulated HUVEC migration” value in series [7] (VEGF 3 ng/ml) is “concentration-dependent inhibition”.

The record behind these values is US8722654B2, “Lipoxin analogs as novel inhibitors of angiogenesis” (The Brigham and Women's Hospital, Inc., priority 2001, dated 2014).
